Values quoted from earlier work in patent US20100273825A1, “SOLID PHARMACEUTICAL COMPOSITION CONTAINING SOLIFENACIN AMORPHOUS FORM” (ASTELLAS PHARMA INC., priority 2009, published 2010).

Target: M3 receptors (Homo sapiens, UniProt P20309)
Details: M3 in smooth muscles, gland tissues; M2 in the heart

Chain of M3 receptors (P20309 whole entry): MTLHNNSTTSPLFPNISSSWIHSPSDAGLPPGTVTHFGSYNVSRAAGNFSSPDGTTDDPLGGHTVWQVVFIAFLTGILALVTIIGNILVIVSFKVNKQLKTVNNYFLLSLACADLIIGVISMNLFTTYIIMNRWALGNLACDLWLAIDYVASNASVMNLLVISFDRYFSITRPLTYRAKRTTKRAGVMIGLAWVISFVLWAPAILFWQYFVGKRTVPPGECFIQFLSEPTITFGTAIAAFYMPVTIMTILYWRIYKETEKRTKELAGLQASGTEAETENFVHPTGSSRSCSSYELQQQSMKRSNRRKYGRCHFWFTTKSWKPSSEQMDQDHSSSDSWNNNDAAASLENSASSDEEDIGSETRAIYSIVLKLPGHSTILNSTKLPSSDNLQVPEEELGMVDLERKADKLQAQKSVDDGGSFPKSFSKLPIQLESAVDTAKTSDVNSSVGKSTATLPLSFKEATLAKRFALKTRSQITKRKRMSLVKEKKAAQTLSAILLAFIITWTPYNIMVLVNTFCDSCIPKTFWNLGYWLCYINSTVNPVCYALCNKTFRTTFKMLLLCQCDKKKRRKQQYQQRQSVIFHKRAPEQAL

- Selectivity for M3 receptors in comparison with M2 receptors: high selectivity
SMILES: O=C(O[C@H]1CN2CCC1CC2)N1CCc2ccccc2[C@@H]1c1ccccc1 [solifenacin, (R)-quinuclidin-3-yl (S)-1-phenyl-1,2,3,4-tetrahydroisoquinoline-2-carboxylate]
